According to patent US11535599B2, “Benzisoxazole derivative” (Sumitomo Pharma Co., Ltd., priority 2020, dated 2022):

Columns and labels:
mouse elevated plus maze = assay: Anxiolytic-like action, mouse elevated plus maze; format: in vivo; settings: Example 13 at 10 mg/kg or more oral; diazepam 3 mg/kg oral
Method: In Parkinson's disease, psychiatric symptom (e.g. depression, anxiety) is known as one of its non-motor symptoms. The anxiolytic-like action of the present invention was evaluated with mouse elevated plus maze. The present test is broadly used as a method for evaluating the anxiolytic-like action of agents.
In the present test, male Crl: CD1 (ICR) mice (CHARLES RIVER LABORATORIES JAPAN, INC.) were used. One hour before the test was started, the solvent, the compound of Example 13 (3 mg/kg, 10 mg/kg, 30 mg/kg, or 100 mg/kg), or diazepam (3 mg/kg) which is a positive control was orally administered to the mouse. The mouse was put into a center platform in which the illuminance was adjusted to 80-100 Lux level. The head of the mouse was set toward the closed arm, and then the test was started. The mouse was allowed to explore freely for 5 minutes. When ⅓ of the mouse's body entered the arm, the behavior was counted as arm entry. And, the time spent in the open arm was also measured with a stopwatch. The ratio of the count of the open arm entry per the count of the all arm entry, and the ratio of the time spent in the open arm per the total exploration time (5 minutes) were calculated. […] Thus, the ratio of the count of the open arm entry per the count of the all arm entry, and the ratio of the time spent in the open arm per the total exploration time tend to be small values. When these ratios in the drug administration group are higher than those of the solvent administration group, it can be judged that the drug has anxiolytic-like action.

[1] = tested on: unilateral lesion model of nigrostriatal dopamine neuron induced with 6-OHDA; assay: Extending duration of levodopa-induced rotational behavior in 6-OHDA unilateral lesion model; format: in vivo, rat; settings: Examples 10 or 30 mg/kg oral; rasagiline 0.6 mg/kg; with levodopa 5 mg/kg i.p.
human Cav3.3 = human Cav3.3 (Homo sapiens (Human), UniProt Q9P0X4); assay: T-type calcium channel inhibitory activity, whole-cell patch-clamp with HEK293 cell; format: cell-based; settings: for inhibition at 600 µM: HEK293, 600 μmol/L, read-out: Cav3.3 % inhibitory rate
Method: (§1) The inhibitory activity of the present compounds for T-type calcium channel was measured by whole-cell patch-clamp method with HEK293 cell (vendor of HEK 293 cell: ATCC, Manassas, Va., USA, builder of expressing cell: ChanTest Corporation., Cleveland, Ohio, USA), in which human Cav3.1, human Cav3.2, or human Cav3.3 is expressed. The culture medium used for HEK293 cell was prepared by adding fetal bovine serum (10%), sodium penicillin G (100 U/mL), streptomycin sulfate (100 μg/mL), and G418 (500 μg/mL) to a mixture medium of Dulbecco's modified Eagle's medium/Ham's F-12 medium. The whole-cell current was evaluated with IonWorks Barracuda system and Population Patch Clamp (both are provided by Molecular Device Corporation, Union City, Calif., USA). The extracellular recording solution used during the recording was Hanks' balanced salt solution. The internal recording solution used herein was 50 mmol/L CsCl, 90 mmol/L CsF, 5 mmol/L MgCl2, 1 mmol/L glycol ether diamine tetraacetic acid (EGTA), and 10 mmol/L 4-(2-hydroxyethyl)piperazine-1-ethanesulfonic acid (HEPES (pH 7.2). The holding voltage was held at −90 mV, then changed to −65 mV. 60 seconds later, −20 mV pulse was added thereto for 200 millisecond to activate the channel on plasma membrane and generate calcium current. The calcium current was recorded with an amplifier of IonWorks Barracuda system, and analyzed with a program of the system (Version 2.0.2). The record of the calcium current was obtained twice, before and after the addition of the compound. In the measurement after adding the compound, the cells were exposed to the recording solution containing the compound for more than 5 minutes and then the current was measured. In the analyses, the ratio of current readout after the compound addition per current readout before the compound addition was calculated, the calculated value was subtracted from one, and the obtained value was converted to percentage. […] The value obtained from each compound was canonicalized based on the two ends of values to obtain each inhibitory rate. The positive control compound used herein was TTA-A2 which is known as T-type calcium channel inhibitor. IC50 value was calculated with Hill equation.
(§2) Each inhibitory rate (%) against T-type calcium channel at the evaluation concentration of the present compound (600 μmol/L) is shown in Table 12, in which the parenthesized values are IC50 values (μmol/L)) calculated from the dose-reactive test.

human Cav3.1 = human Cav3.1 (Homo sapiens (Human), UniProt O43497); assay: as above; format: cell-based; settings: for inhibition at 600 µM: HEK293, 600 μmol/L, read-out: Cav3.1 % inhibitory rate
Sequence of human Cav3.1 (O43497 whole entry): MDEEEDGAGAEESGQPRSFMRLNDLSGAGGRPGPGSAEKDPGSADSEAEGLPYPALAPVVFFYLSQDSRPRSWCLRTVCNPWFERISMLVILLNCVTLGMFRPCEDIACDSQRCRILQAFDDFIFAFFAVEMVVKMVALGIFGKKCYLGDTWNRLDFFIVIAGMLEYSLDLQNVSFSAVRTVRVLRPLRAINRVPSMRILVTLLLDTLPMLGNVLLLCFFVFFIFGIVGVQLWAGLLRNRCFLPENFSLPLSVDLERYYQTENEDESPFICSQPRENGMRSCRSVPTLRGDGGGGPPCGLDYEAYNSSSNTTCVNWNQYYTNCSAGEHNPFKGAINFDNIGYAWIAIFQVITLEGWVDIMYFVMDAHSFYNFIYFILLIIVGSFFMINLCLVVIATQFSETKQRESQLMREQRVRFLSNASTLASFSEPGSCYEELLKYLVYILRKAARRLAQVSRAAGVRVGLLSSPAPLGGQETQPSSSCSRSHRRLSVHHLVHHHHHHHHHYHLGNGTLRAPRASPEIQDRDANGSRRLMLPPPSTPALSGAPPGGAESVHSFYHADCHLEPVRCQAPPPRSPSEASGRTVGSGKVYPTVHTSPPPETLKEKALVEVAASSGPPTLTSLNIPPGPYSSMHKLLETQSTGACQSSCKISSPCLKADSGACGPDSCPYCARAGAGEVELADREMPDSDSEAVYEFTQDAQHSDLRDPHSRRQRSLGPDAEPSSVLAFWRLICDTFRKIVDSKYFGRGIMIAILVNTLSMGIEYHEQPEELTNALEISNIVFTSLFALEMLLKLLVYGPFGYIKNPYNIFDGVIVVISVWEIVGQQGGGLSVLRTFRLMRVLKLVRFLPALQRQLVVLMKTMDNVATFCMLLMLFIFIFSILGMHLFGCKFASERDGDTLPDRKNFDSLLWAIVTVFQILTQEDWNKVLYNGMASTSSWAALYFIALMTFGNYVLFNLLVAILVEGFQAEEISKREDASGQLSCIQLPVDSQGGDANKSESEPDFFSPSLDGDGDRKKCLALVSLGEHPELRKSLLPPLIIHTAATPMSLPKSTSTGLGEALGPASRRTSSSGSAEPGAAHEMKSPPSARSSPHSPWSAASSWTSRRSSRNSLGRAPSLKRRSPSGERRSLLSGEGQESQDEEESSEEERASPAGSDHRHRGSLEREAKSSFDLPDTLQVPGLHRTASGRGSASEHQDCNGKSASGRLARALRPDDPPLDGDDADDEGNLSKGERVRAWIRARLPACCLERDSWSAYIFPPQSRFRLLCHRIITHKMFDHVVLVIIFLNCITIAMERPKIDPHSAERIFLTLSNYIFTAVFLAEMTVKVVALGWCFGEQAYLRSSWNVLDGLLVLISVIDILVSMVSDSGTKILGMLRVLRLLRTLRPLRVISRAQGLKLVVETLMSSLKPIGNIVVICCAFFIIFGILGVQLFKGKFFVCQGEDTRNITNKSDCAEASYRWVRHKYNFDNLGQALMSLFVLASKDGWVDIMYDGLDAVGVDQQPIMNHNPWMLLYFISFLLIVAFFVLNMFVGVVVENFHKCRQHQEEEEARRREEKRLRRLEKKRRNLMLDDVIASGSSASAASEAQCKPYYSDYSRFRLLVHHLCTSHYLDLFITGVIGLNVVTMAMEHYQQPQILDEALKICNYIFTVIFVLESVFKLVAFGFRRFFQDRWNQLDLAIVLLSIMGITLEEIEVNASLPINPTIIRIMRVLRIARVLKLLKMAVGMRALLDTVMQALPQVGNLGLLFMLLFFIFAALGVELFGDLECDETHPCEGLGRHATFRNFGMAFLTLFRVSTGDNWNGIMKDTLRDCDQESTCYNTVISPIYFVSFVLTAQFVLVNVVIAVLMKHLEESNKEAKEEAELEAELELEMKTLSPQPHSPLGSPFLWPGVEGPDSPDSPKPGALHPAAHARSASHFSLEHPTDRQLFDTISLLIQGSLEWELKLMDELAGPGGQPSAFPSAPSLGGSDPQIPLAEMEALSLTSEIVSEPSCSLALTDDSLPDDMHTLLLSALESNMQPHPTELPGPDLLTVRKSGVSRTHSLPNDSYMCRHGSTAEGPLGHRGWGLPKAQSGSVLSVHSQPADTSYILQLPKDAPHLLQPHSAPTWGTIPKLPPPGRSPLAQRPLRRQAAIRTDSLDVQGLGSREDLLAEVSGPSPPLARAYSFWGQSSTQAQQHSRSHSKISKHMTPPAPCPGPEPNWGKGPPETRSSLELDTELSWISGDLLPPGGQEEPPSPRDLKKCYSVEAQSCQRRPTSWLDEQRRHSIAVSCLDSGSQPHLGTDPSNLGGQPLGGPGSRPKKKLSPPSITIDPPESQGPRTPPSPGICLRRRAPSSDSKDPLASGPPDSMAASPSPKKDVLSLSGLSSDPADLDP
Method: as §1, §2

human Cav3.2 = human Cav3.2 (Homo sapiens (Human), UniProt O95180); assay: as above; format: cell-based; settings: for inhibition at 600 µM: HEK293, 600 μmol/L, read-out: Cav3.2 % inhibitory rate
Sequence of human Cav3.2 (O95180 whole entry): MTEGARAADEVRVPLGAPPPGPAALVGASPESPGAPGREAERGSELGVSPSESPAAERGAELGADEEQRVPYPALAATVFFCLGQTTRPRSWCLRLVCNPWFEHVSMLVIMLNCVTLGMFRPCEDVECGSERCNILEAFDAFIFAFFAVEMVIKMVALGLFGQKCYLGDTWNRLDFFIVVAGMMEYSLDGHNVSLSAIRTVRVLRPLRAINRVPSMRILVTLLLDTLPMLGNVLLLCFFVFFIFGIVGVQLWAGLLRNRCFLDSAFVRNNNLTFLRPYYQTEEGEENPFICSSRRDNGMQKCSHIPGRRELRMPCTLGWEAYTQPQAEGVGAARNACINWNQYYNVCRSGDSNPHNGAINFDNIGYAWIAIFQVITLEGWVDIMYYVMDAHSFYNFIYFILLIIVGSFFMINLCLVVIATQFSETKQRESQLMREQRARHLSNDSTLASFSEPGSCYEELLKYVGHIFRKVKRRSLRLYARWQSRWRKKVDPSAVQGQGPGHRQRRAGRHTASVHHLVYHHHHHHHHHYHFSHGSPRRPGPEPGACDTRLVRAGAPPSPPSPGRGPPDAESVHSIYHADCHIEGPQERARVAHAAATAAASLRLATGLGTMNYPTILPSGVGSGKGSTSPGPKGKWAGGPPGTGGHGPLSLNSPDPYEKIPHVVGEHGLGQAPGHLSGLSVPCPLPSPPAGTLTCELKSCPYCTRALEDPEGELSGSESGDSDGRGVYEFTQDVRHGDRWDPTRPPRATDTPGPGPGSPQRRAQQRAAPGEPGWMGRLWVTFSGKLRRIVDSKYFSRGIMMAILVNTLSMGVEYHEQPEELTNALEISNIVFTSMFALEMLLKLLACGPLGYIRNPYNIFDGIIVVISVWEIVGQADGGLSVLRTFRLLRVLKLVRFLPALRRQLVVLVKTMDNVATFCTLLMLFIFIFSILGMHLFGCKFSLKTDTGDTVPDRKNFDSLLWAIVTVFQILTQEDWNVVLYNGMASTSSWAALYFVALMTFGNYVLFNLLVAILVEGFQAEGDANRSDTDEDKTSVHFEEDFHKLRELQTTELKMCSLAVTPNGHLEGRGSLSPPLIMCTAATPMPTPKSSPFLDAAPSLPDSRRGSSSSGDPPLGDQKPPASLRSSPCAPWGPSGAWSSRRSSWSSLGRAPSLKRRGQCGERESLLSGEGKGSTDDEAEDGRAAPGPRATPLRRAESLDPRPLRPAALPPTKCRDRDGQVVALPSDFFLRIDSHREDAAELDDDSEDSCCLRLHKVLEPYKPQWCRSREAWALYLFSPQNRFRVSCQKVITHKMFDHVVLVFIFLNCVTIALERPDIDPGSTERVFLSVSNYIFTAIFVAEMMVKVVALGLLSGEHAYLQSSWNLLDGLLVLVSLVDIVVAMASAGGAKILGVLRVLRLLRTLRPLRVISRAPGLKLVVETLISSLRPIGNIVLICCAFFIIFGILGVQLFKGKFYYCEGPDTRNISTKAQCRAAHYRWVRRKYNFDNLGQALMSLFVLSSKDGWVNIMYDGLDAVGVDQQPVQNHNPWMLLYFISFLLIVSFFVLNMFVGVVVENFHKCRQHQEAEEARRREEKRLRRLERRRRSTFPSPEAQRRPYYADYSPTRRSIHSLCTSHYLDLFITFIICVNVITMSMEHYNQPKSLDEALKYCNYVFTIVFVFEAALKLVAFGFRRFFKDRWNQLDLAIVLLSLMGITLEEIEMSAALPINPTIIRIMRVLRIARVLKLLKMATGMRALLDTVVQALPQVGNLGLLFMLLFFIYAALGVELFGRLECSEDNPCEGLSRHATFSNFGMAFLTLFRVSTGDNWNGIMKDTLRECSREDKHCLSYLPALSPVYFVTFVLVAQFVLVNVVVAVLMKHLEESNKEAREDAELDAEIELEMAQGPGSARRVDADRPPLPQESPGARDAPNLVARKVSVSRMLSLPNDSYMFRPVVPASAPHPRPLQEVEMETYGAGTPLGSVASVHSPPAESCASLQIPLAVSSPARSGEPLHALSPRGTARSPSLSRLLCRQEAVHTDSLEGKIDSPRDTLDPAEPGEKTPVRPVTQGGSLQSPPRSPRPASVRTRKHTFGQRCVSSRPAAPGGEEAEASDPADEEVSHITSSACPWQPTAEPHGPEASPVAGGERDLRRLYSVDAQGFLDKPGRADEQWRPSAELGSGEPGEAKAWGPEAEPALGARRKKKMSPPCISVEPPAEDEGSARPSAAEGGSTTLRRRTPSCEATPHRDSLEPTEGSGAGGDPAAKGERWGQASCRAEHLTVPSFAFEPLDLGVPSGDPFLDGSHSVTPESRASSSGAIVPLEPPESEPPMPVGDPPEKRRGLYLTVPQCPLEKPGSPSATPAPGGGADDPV
Method: as §1, §2

human CA-II = human CA-II (Homo sapiens (Human), UniProt P00918); assay: Activity for inhibiting carbonic anhydrase (CA); format: biochemical; settings: 4-nitrophenyl acetate substrate
Method: CA is a zinc metalloenzyme family which catalyzes reversible hydration between carbon dioxide, and bicarbonate and proton.
As a substance for decomposition by CA-II, 4-nitrophenyl acetate was used herein. 4-Nitrophenyl acetate is […] with CA-II to produce 4-nitrophenol. […] To the diluted solution were added […] (final concentration: 5 mmol/L) and the present compound of each concentration, and the mixture was incubated at 37° C. under shading for 30 minutes. […] The IC50 of the compound was obtained through the two-parameter logistic model with the inhibitory rate data in each concentration which was obtained from plural trials.

Rat striatum MAOB = Rat striatum MAOB (Rattus norvegicus (Rat), UniProt P19643); assay: Activity for inhibiting monoamine oxidase B (MAOB); format: biochemical; settings: [14C] β-PEA substrate; read-out: Rat striatum MAOB IC50
Method: MAOB is an enzyme involved in oxidative de-amino acid reaction of an endogenous monoamine neurotransmitter such as dopamine. […] The effect of the present compounds for inhibiting MAOB in rat striatum and simian striatum was tested.
Mitochondria⋅synaptosome fraction containing MAOB was prepared according to the following procedure. To striata of male Slc: Wistar rat (Japan SLC, Inc.) or male cynomolgus monkey (HAMRI CO., LTD.) was added 0.32 mol/L aqueous sucrose by 10 mL per 1 gram as wet weight of the tissue, and the mixture was homogenized. The homogenate was centrifuged at 4° C. at 1,000 g for 10 minutes, and the obtained supernatant was centrifuged again at 4° C. at 17,200 g for 20 minutes. To the obtained precipitate was added a prepared buffer solution (10 mmol/L Tris-HCl buffer solution (pH 7.4), 0.25 mol/L aqueous sucrose, 0.5 mmol/L EDTA-2K) by 10 mL per 1 gram as wet weight of the original tissue, and the mixture was centrifuged again at 4° C. at 17,200 g for 20 minutes. To the obtained precipitate was added the prepared buffer solution by 40 mL per 1 gram as wet weight of the original tissue. The mixture was suspended to be used as an enzyme homogenate solution.
As a substance to be degraded by MAOB, ^14C-labeled β-phenylethylamine ([^14C] β-PEA) was used. [^14C] β-PEA and the present compound solution diluted to each concentration were incubated with the enzyme homogenate solution at 37° C. for a given period, and then the reaction was stopped by adding 3 mol/L cold HCl thereto. The reaction product was extracted with a mixture of water-saturated toluene and ethyl acetate (1:1). The supernatant organic layer was separated, a liquid scintillation cocktail (ACSII, GE Healthcare) was added to the separated organic layer, and the radioactivity was measured with a liquid scintillation counter (TRI-CARB 3100TR, Packard). The IC50 value of each compound was determined based on two parameter logistic model with the inhibitory data of each concentration, said data were obtained from plural trials.

[2] = tested on: reserpine-induced Parkinson's disease model mouse; assay: Potentiating effect of levodopa-induced hyperactivity in reserpine-induced Parkinson's disease model mouse; format: in vivo; settings: Examples 12.5 or 25 mg/kg oral; rasagiline 3 or 10 mg/kg; with levodopa 200 mg/kg i.p.
Method: Dopamine-depleted mice due to reserpine treatment are model mice of akinesia symptoms in Parkinson's disease, said symptoms are relieved with levodopa (L-DOPA). The effect of the present compounds for potentiating the levodopa's effect was tested.
In the present test, male Crl: CD1 (ICR) mice (CHARLES RIVER LABORATORIES JAPAN, INC.) were used. 20-24 hours before starting the movement measurement, reserpine (3 mg/kg) was intraperitoneally administered to the mouse. One hour before starting the movement measurement, the present compound (12-.5 mg/kg or 25 mg/kg of. Examples 1, 2, 3, 4, and 5) was orally administered to the mouse. Shortly before starting the movement measurement, levodopa (200 mg/kg) with benserazide whose amount was ¼ of levodopa in free form was intraperitoneally administered to the mouse. The movement measurement was carried out for 90 minutes, and each total movement was compared.

[3] = tested on: harmaline-induced essential tremor model; assay: Anti-tremor effect in harmaline-induced essential tremor model; format: in vivo, mouse; settings: Examples 1, 13: 25 or 50 mg/kg, Example 14: 3.125-25 mg/kg oral; β-propranolol 10 mg/kg i.p.
Method: As an animal model of essential tremor, an animal administrated with harmaline is broadly used in its evaluation test. […] The effect of the present compounds for harmaline-acute-administration-induced tremor was studied. To male Crl: CD1 mice (6-7 weeks old) (CHARLES RIVER LABORATORIES JAPAN, INC.), harmaline (30 mg/kg) was intraperitoneally administered to induce tremor. The present compound (Example 1 (25 mg/kg or 50 mg/kg), Example 13 (25 mg/kg or 50 mg/kg), or Example 14 (3.125 mg/kg, 6.25 mg/kg, 12.5 mg/kg, or 25 mg/kg)) was orally administered to the mouse one hour before the administration of harmaline. And, saline or β-propranolol (10 mg/kg) which is a positive control compound was intraperitoneally administered to the mouse 20 minutes before the administration of harmaline. 35 minutes before the administration of harmaline, the mouse was put into a measurement cage (an acrylic cylinder set in a horizontal direction, φ 65 mm, length 145 mm), one cage to one mouse, said measurement cage was in a soundproof box of a startle response instrument (O'hara & Co., Ltd., Tokyo). The trembling that the mouse gave were recorded over time as tremor data. The animal was put into cage, and the data were recorded for 20 minutes just before (PRE) and just after (POST) the administration of harmaline. The time-series signal data were analyzed about frequency with an analysis software, VitalTracer and BIMUTAS II-A (both, Kissei Comtech Co., Ltd., Matsumoto-shi). At 12-15 Hz or 12-18 Hz as a frequency which increases with tremor, the spectrum amounts were extracted, and the tremor intensity T of each subject was calculated according to the following formula. T=POST/PRE

| Structure (SMILES) | count of the open arm entry (mouse elevated plus maze) | time spent in the open arm (mouse elevated plus maze) | rotational number in the late phase (100-120 minutes) [1] | inhibition at 600 µM (human Cav3.3) | inhibition at 600 µM (human Cav3.1) | inhibition at 600 µM (human Cav3.2) | IC50 (human CA-II) | IC50 (Rat striatum MAOB) | levodopa-induced hyperactivity (total movement, 90 minutes) [2] | IC50 (human Cav3.3; dose-reactive test, read-out: Cav3.3 IC50 (parenthesized)) | IC50 (human Cav3.1; dose-reactive test, read-out: Cav3.1 IC50 (parenthesized)) | IC50 (human Cav3.2; dose-reactive test, read-out: Cav3.2 IC50 (parenthesized)) | harmaline-induced tremor intensity [3] |
| --- | --- | --- | --- | --- | --- | --- | --- | --- | --- | --- | --- | --- | --- |
| CN1C(=O)CN=C(c2ccccc2)c2cc(Cl)ccc21 [Diazepam, diazepam, reference compound] | increase significantly | increase significantly |  |  |  |  |  |  |  |  |  |  |  |
| NS(=O)(=O)C1(c2noc3ccccc23)CC1 [Example 5, 1-(1,2-benzoxazol-3-yl)cyclopropane-1-sulfonamide] |  |  | did not show statistically-significant increase, but showed a tendency to increase the rotational number in the late phase | 55.6% | 64.5% | 54% | 5.2 µM | > 600 µM | significantly-potentiating effect of levodopa-induced hyperactivity |  |  |  |  |
| C[C@@H](c1noc2ccccc12)S(N)(=O)=O [Example 14, (1S)-1-(1,2-benzoxazol-3-yl)ethane-1-sulfonamide] |  |  | significantly increased the rotational number in the late phase | 31.8% | 49.6% | 33.8% | 3.5 µM | > 600 µM |  | 888 µM | 549 µM | 839 µM | inhibited harmaline-induced tremor |
| CC(C)NCC(O)COc1cccc2ccccc12 (stereo not drawn) [β-Propranolol, β-propranolol, reference compound] |  |  |  |  |  |  |  |  |  |  |  |  | significantly inhibited harmaline-induced tremor |
